This is an account of results in patent US12479840B2, “HMG-CoA reductase degradation inducing compound” (Uppthera, priority 2020, dated 2025).

In this assay the target is T1, HMG-CoA reductase (Homo sapiens, UniProt P04035).
T1 construct: endogenous in cells; host or cells: HepG2 (Korea Cell Line Bank)
T1 sequence (P04035 1-888): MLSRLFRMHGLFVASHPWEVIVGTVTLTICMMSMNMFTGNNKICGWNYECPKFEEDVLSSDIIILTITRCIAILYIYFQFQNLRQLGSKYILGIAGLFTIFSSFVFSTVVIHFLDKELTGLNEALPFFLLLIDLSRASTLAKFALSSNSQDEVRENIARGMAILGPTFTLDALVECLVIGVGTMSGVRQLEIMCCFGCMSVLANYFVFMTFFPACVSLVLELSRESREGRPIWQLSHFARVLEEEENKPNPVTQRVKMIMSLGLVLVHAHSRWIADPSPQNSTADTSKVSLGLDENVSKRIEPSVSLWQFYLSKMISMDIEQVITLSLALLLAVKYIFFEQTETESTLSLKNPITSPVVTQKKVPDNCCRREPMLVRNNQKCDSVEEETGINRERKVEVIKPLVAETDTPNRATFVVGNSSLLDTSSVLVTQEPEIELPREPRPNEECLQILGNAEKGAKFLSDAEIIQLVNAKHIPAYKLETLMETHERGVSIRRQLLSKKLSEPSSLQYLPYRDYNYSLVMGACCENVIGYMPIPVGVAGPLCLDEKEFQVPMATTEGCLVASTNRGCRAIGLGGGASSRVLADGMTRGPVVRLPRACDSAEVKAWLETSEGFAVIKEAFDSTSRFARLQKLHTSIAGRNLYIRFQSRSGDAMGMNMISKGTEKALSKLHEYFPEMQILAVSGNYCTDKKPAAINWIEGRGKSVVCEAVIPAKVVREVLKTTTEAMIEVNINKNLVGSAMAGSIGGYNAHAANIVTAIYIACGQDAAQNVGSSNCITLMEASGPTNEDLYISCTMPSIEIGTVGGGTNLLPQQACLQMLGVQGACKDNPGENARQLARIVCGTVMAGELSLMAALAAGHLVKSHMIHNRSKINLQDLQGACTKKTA
Nature of the assay: HMG-CoA reductase (HMGCR) degradation in HepG2 cells by western blotting. It counts as cell-based. Particulars: treated for 18 hours, ratio of HMG-CoA reductase to GAPDH, read-out: DC50. Summed up:
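HepG2 cells (passage P105–P110) treated 18 hours with compounds in 10-point three-fold dilutions from 3 μM. RIPA lysates (15 μg protein, BCA-quantified) run on SDS-PAGE and immunoblotted for HMGCR (1:500) with GAPDH (1:20000) as loading control, primary antibodies 16 hours at 4° C.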
(In general: A western blot detects proteins with antibodies after separation by electrophoresis.)
With `C[C@H]1C=C2C=C[C@H](C)[C@H](CC[C@@H]3C[C@@H](O[Si](C)(C)C(C)(C)C)CC(=O)O3)[C@H]2[C@@H](OC(=O)NCCOCC(=O)NCC(=O)Nc2cccc3c2C(=O)N(C2CCC(=O)NC2=O)C3=O)C1` (stereo partly drawn) [Compound 144, (1S,3R,7S,8S,8aR)-8-(2-((2R,4R)-4-((tert-butyldimethylsilyl)oxy)-6-oxotetrahydro-2H-pyran-2-yl)ethyl)-3,7-dimethyl-1,2,3,7,8,8a-hexahydronaphthalen-1-yl (2-(2-((2-((2-(2,6-dioxopiperidin-3-yl)-1,3-dioxoisoindolin-4-yl)amino)-2-oxoethyl)amino)-2-oxoethoxy)ethyl)carbamate], the 50% degradation concentration (DC50) (commonly the midpoint of the concentration-degradation curve) was in the range of 50 to 500 nM.
The result for `C[C@H]1C=C2C=C[C@H](C)[C@H](CC[C@@H]3C[C@@H](O)CC(=O)O3)[C@H]2[C@@H](OC(=O)NCCOCC(=O)NCC(=O)Nc2cccc3c2C(=O)N(C2CCC(=O)NC2=O)C3=O)C1` (stereo partly drawn) [Compound 145, (1S,3R,7S,8S,8aR)-8-(2-((2R,4R)-4-hydroxy-6-oxotetrahydro-2H-pyran-2-yl)ethyl)-3,7-dimethyl-1,2,3,7,8,8a-hexahydronaphthalen-1-yl (2-(2-((2-((2-(2,6-dioxopiperidin-3-yl)-1,3-dioxoisoindolin-4-yl)amino)-2-oxoethyl)amino)-2-oxoethoxy)ethyl)carbamate] reads under 50 nM; that for `C[C@H]1C=C2C=C[C@H](C)[C@H](CC[C@@H]3C[C@@H](O[Si](C)(C)C(C)(C)C)CC(=O)O3)[C@H]2[C@@H](OC(=O)NCCc2ccc(CC(=O)Nc3cccc4c3C(=O)N(C3CCC(=O)NC3=O)C4=O)cc2)C1` (stereo partly drawn) [Compound 146, (1S,3R,7S,8S,8aR)-8-(2-((2R,4R)-4-((tert-butyldimethylsilyl)oxy)-6-oxotetrahydro-2H-pyran-2-yl)ethyl)-3,7-dimethyl-1,2,3,7,8,8a-hexahydronaphthalen-1-yl (4-(2-((2-(2,6-dioxopiperidin-3-yl)-1,3-dioxoisoindolin-4-yl)amino)-2-oxoethyl)phenethyl)carbamate], under 50 nM.
The result for `C[C@H]1C=C2C=C[C@H](C)[C@H](CC[C@@H]3C[C@@H](O)CC(=O)O3)[C@H]2[C@@H](OC(=O)NCCc2ccc(CC(=O)Nc3cccc4c3C(=O)N(C3CCC(=O)NC3=O)C4=O)cc2)C1` (stereo partly drawn) [Compound 147, (1S,3R,7S,8S,8aR)-8-(2-((2R,4R)-4-hydroxy-6-oxotetrahydro-2H-pyran-2-yl)ethyl)-3,7-dimethyl-1,2,3,7,8,8a-hexahydronaphthalen-1-yl (4-(2-((2-(2,6-dioxopiperidin-3-yl)-1,3-dioxoisoindolin-4-yl)amino)-2-oxoethyl)phenethyl)carbamate] reads under 50 nM; that for `C[C@H]1C=C2C=C[C@H](C)[C@H](CC[C@@H]3C[C@@H](O)CC(=O)O3)[C@H]2[C@@H](OC(=O)C(C)(C)CCC(=O)NCCOCCOCCNc2cccc3nnn(C4CCC(=O)NC4=O)c(=O)c23)C1` (stereo partly drawn) [Compound 152, (1S,3R,7S,8S,8aR)-8-(2-((2R,4R)-4-hydroxy-6-oxotetrahydro-2H-pyran-2-yl)ethyl)-3,7-dimethyl-1,2,3,7,8,8a-hexahydronaphthalen-1-yl 5-((2-(2-(2-((3-(2,6-dioxopiperidin-3-yl)-4-oxo-3,4-dihydrobenzo[d][1,2,3]triazin-5-yl)amino)ethoxy)ethoxy)ethyl)amino)-2,2-dimethyl-5-oxopentanoate], under 50 nM.
The result for `C[C@H]1C=C2C=C[C@H](C)[C@H](CC[C@@H]3CC=CC(=O)O3)[C@H]2[C@@H](OC(=O)NCCOCCOCCNc2cccc3c2C(=O)N(C2CCC(=O)NC2=O)C3=O)C1` (stereo partly drawn) [Compound 153, (1S,3R,7S,8S,8aR)-3,7-dimethyl-8-(2-((R)-6-oxo-3,6-dihydro-2H-pyran-2-yl)ethyl)-1,2,3,7,8,8a-hexahydronaphthalen-1-yl (2-(2-(2-((2-(2,6-dioxopiperidin-3-yl)-1,3-dioxoisoindolin-4-yl)amino)ethoxy)ethoxy)ethyl)carbamate] reads under 50 nM; that for `Cc1ncsc1-c1ccc(CNC(=O)[C@@H]2C[C@@H](O)CN2C(=O)[C@@H](NC(=O)CCCCCCCCCCNC(=O)O[C@H]2C[C@@H](C)C=C3C=C[C@H](C)[C@H](CC[C@@H](O)C[C@@H](O)CC(=O)O)[C@H]32)C(C)(C)C)cc1` [Compound 154, (3R,5R)-3,5-dihydroxy-7-((1S,2S,6R,8S,8aR)-8-(((11-(((S)-1-((2S,4R)-4-hydroxy-2-((4-(4-methylthiazol-5-yl)benzyl)carbamoyl)pyrrolidin-1-yl)-3,3-dimethyl-1-oxobutan-2-yl)amino)-11-oxoundecyl)carbamoyl)oxy)-2,6-dimethyl-1,2,6,7,8,8a-hexahydronaphthalen-1-yl)heptanoic acid], over 500 nM; that for `C[C@H]1C=C2C=C[C@H](C)[C@H](CC[C@@H]3C[C@@H](O[Si](C)(C)C(C)(C)C)CC(=O)O3)[C@H]2[C@@H](OC(=O)NCCOCCOCCNc2cccc3nnn(C4CCC(=O)NC4=O)c(=O)c23)C1` (stereo partly drawn) [Compound 155, (1S,3R,7S,8S,8aR)-8-(2-((2R,4R)-4-((tert-butyldimethylsilyl)oxy)-6-oxotetrahydro-2H-pyran-2-yl)ethyl)-3,7-dimethyl-1,2,3,7,8,8a-hexahydronaphthalen-1-yl (2-(2-(2-((3-(2,6-dioxopiperidin-3-yl)-4-oxo-3,4-dihydrobenzo[d][1,2,3]triazin-5-yl)amino)ethoxy)ethoxy)ethyl)carbamate], under 50 nM.
In the case of `C[C@H]1C=C2C=C[C@H](C)[C@H](CC[C@@H]3C[C@@H](O)CC(=O)O3)[C@H]2[C@@H](OC(=O)NCCOCCOCCNc2cccc3nnn(C4CCC(=O)NC4=O)c(=O)c23)C1` (stereo partly drawn) [Compound 156, (1S,3R,7S,8S,8aR)-8-(2-((2R,4R)-4-hydroxy-6-oxotetrahydro-2H-pyran-2-yl)ethyl)-3,7-dimethyl-1,2,3,7,8,8a-hexahydronaphthalen-1-yl (2-(2-(2-((3-(2,6-dioxopiperidin-3-yl)-4-oxo-3,4-dihydrobenzo[d][1,2,3]triazin-5-yl)amino)ethoxy)ethoxy)ethyl)carbamate], the 50% degradation concentration (DC50) was under 50 nM.
Turning to `C[C@H]1C=C2C=C[C@H](C)[C@H](CC[C@@H]3C[C@@H](O)CC(=O)O3)[C@H]2[C@@H](OC(=O)NCCCOCCOCCOCCCNc2cccc3c2C(=O)N(C2CCC(=O)NC2=O)C3=O)C1` (stereo partly drawn) [Compound 157, (1S,3R,7S,8S,8aR)-8-(2-((2R,4R)-4-hydroxy-6-oxotetrahydro-2H-pyran-2-yl)ethyl)-3,7-dimethyl-1,2,3,7,8,8a-hexahydronaphthalen-1-yl (3-(2-(2-(3-((2-(2,6-dioxopiperidin-3-yl)-1,3-dioxoisoindolin-4-yl)amino)propoxy)ethoxy)ethoxy)propyl)carbamate], the DC50 was under 50 nM.
